Where a name gives a salt, the structure may show the parent alone.
Experiments:
SHP2 protein [1] = target: T1, SHP2 protein (Homo sapiens, UniProt Q06124); assay: Degradation activity on SHP2 protein in NCI-H358 cells (Western blot, DC50); assay type: cell-based; design: endogenous in cells; details: read-out: Degradation activity for differenct cell lines NCI-H358 (DC50)
T1 sequence (Q06124 1-593): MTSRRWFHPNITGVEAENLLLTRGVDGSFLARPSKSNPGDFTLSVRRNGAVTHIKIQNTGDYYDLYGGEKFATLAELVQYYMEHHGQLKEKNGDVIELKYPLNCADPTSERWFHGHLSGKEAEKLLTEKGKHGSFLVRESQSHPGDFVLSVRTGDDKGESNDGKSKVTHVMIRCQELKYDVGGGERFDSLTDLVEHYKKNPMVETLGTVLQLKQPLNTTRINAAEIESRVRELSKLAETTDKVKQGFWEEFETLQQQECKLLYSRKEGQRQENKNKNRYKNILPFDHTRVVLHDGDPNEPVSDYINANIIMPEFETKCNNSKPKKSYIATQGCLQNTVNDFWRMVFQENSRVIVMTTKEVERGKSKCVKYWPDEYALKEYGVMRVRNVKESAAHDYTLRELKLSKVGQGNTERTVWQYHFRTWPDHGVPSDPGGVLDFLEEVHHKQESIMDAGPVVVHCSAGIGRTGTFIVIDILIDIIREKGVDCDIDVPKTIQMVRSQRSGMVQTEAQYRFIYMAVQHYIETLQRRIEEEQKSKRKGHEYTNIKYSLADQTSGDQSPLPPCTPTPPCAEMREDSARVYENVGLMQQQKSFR
Experimental: (1) MV-411 cells were cultured in the cell culture medium, and then well-growing cells were selected and inoculated in a 12-well plate, with 1 mL/well and 1×10^6 cells/well. The plate was incubated overnight in a 5% CO2 cell incubator at 37° C.
(2) 10 mM storage solution of each drug was prepared using dimethylsulfoxide (DMSO). The stock solution was diluted gradually with DMSO before use, and then 1 μL of the compound solution was added to the cell culture well (to ensure that the DMSO concentration in the culture system was […]), so that the final drug concentration is 100 nM, 10 nM, 3 nM, 1 nM, 0.3 nM, and 0.1 nM. Two wells were set for each concentration. The plate was gently shaken and mixed. Additionally, negative control wells (containing an equal amount of DMSO) and positive control wells were included.
(3) After 24 hours of cultivation, the cells were lysed using RIPA cell lysate, and the proteins were extracted. The protein concentration was measured using a BCA assay kit. 5× concentrated protein buffer was loaded, heated at 100° C. for 5 min, and then the sample was stored at −20° C.
(4) For each well, 30 μg of protein was loaded to polyacrylamide gel for electrophoresis.
(5) The protein was transferred from polyacrylamide gel to PVDF membrane, and sealed at room temperature with 5% skimmed milk for 1 h, which was then incubated with the primary antibodies (Anti-SHP2 rabbit mAb and Anti-GAPDH rabbit mAb) at 4° C. overnight. The membrane was washed three times with TBST solution, 10 minutes for each time. After that, the membrane was incubated with the secondary antibodies (horseradish peroxidase labeled goat anti-rabbit IgG) at room temperature for 2 h, and then washed three times with TBST solution, 10 minutes for each time, followed by exposure.
(6) The images were analyzed with Image J grayscale, and the degradation ratio of protein bands in the test group was calculated, based on the negative control group (DMSO) (100%).
(7) Using the Dose-response-inhibition equation in the data processing software GraphPad Prism 8, the DC50 value was obtained (which represents the drug concentration corresponding to 50% degradation of the target protein).
Using similar methods and different cell lines, the degradation activity of the compound according to the present invention on SHP2 protein of different cell lines was tested under suitable culture conditions.

SHP2 protein [2] = target: T1, SHP2 protein; assay: Degradation activity on SHP2 protein in MIA Paca-2 cells (Western blot, DC50); assay type: cell-based; design: endogenous in cells; host or cells: MIA Paca-2 cells; details: read-out: Degradation activity for differenct cell lines MIA Paca-2 (DC50)
In short: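 DC50 is the concentration degrading 50% of SHP2 relative to DMSO control. It was derived by fitting Western blot band densitometry (anti-SHP2, GAPDH reference) from cells exposed 24 h to 0.1–100 nM compound in 0.1% DMSO.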

| Compound | DC50 (SHP2 protein [1]) [nM] | DC50 (SHP2 protein [2]) [nM] |
| --- | --- | --- |
| CC1(N)CCN(c2cnc(Sc3cccc(NC(=O)CCN4CCN(c5ccc(C(=O)NCc6ccc7c(c6)CN(C6CCC(=O)NC6=O)C7=O)nn5)CC4)c3)cn2)CC1 (stereo not drawn) [Compound 248] | < 100 | < 100 |
| C[C@H]1CN(CCCCCCCCC(=O)Nc2cccc(Sc3cnc(N4CCC(C)(N)CC4)cn3)c2)CCN1c1ccc(C(=O)NCc2ccc3c(c2)CN(C2CCC(=O)NC2=O)C3=O)nn1 (stereo partly drawn) [Compound 250] | < 100 | < 100 |
| CC1(N)CCN(c2cnc(Sc3cccc(NC(=O)CCCCCCCCN4CCN(c5ccc(C(=O)NCc6ccc7c(c6)CN(C6CCC(=O)NC6=O)C7=O)nn5)C[C@@H]4CO)c3)cn2)CC1 (stereo partly drawn) [Compound 251] | < 100 | < 100 |
| C[C@@H]1CN(c2ccc(C(=O)NCc3ccc4c(c3)CN(C3CCC(=O)NC3=O)C4=O)nn2)CCN1CCCCCCCCC(=O)Nc1cccc(Sc2cnc(N3CCC(C)(N)CC3)cn2)c1 (stereo partly drawn) [Compound 252] | < 100 | < 100 |
| CC1(N)CCN(c2cnc(Sc3cccc(NC(=O)CCCCN4CCC(N5CCN(c6ccc(C(=O)NCc7ccc8c(c7)CN(C7CCC(=O)NC7=O)C8=O)nn6)CC5)C4)c3)cn2)CC1 (stereo not drawn) [Compound 266] | 100 to 1000 | > 1000 |
| CC1(N)CCN(c2cnc(Sc3cccc(NC(=O)c4ccc(-c5ccc(N6CCN(c7ccc(C(=O)NCc8ccc9c(c8)CN(C8CCC(=O)NC8=O)C9=O)nc7)CC6)cc5)cc4)c3)cn2)CC1 (stereo not drawn) [Compound 343, 5-(4-(4′-((3-(([…])thio)phenyl)carbamoyl)-[1,1′-diphenyl]-4-yl)piperazin-1-yl)-N-((2-(2,6-dioxopiperidin-3-yl)-1-oxoisoindolin-5-yl)methyl)pyridinecarboxamide] | > 1000 | < 100 |
| CC1(N)CCN(c2cnc(Sc3cccc(NC(=O)c4ccc5c(c4)CC(N4CCN(c6ccc(C(=O)NCc7ccc8c(c7)CN(C7CCC(=O)NC7=O)C8=O)nn6)CC4)C5)c3)cn2)CC1 (stereo not drawn) [Compound 344, […]] | > 1000 | < 100 |
| CC1(N)CCN(c2cnc(Sc3cccc(NC(=O)c4csc(N5CCC(N6CC=C(c7ccc(C(=O)NCc8ccc9c(c8)CN(C8CCC(=O)NC8=O)C9=O)nn7)CC6)CC5)n4)c3)cn2)CC1 (stereo not drawn) [Compound 357] | < 100 | < 100 |
| CC1(N)CCN(c2cnc(Sc3cccc(NC(=O)c4ccc(N5CCC(N6CC=C(c7ncc(C(=O)NCc8ccc9c(c8)CN(C8CCC(=O)NC8=O)C9=O)cc7Cl)CC6)CC5)cc4)c3)cn2)CC1 (stereo not drawn) [Compound 365] | < 100 | 100 to 1000 |
| CC1(N)CCN(c2cnc(Sc3cccc(NC(=O)c4ccc(N5CCC(N6CC=C(c7ncc(C(=O)NCc8ccc9c(c8)CN(C8CCC(=O)NC8=O)C9=O)cn7)CC6)CC5)cc4)c3)cn2)CC1 (stereo not drawn) [Compound 370] | < 100 | 100 to 1000 |
| NC1(CO)CCN(c2cnc(Sc3cccc(NC(=O)c4ccc(N5CCC(N6CC=C(c7ccc(C(=O)NCc8ccc9c(c8)CN(C8CCC(=O)NC8=O)C9=O)nn7)CC6)CC5)cc4)c3)cn2)CC1 (stereo not drawn) [Compound 375] | < 100 | > 1000 |
| CC1(N)CCN(c2cnc(Sc3cccc(NC(=O)c4ccc(N5CCC(N6CC=C(c7cnc(C(=O)NCc8ccc9c(c8)CN(C8CCC(=O)NC8=O)C9=O)cc7Cl)CC6)CC5)cc4)c3)cn2)CC1 (stereo not drawn) [Compound 399] | < 100 | < 100 |

Second part, the compound after the results:

| DC50 (SHP2 protein [1]) [nM] | DC50 (SHP2 protein [2]) [nM] | Compound |
| --- | --- | --- |
| < 100 | < 100 | CC1(N)CCN(c2cnc(Sc3cccc(NC(=O)CCCCc4ccc(N5CCN(c6ccc(C(=O)NCc7ccc8c(c7)CN(C7CCC(=O)NC7=O)C8=O)nn6)CC5)cc4)c3)cn2)CC1 (stereo not drawn) [Compound 244] |
| < 100 | < 100 | CC(CCCCCCCC(=O)Nc1cccc(Sc2cnc(N3CCC(C)(N)CC3)cn2)c1)N1CC=C(c2ccc(C(=O)NCc3ccc4c(c3)CN(C3CCC(=O)NC3=O)C4=O)nc2)C(C)(C)C1 (stereo not drawn) [Compound 245] |
| < 100 | < 100 | Cn1nc(C(=O)NCc2ccc3c(c2)CN(C2CCC(=O)NC2=O)C3=O)cc1C1=CCN(CCCCCCCCC(=O)Nc2cccc(Sc3cnc(N4CCC(C)(N)CC4)cn3)c2)CC1 (stereo not drawn) [Compound 246] |
| 100 to 1000 | > 1000 | CC1(N)CCN(c2cnc(Sc3cccc(NCc4ccc(CN5CCN(c6ccc(C(=O)NCc7ccc8c(c7)CN(C7CCC(=O)NC7=O)C8=O)nn6)CC5)cc4)c3)cn2)CC1 (stereo not drawn) [Compound 247] |
| < 100 | < 100 | C[C@H]1CN(c2ccc(C(=O)NCc3ccc4c(c3)CN(C3CCC(=O)NC3=O)C4=O)nn2)CCN1CCCCCCCCC(=O)Nc1cccc(Sc2cnc(N3CCC(C)(N)CC3)cn2)c1 (stereo partly drawn) [Compound 249] |
| < 100 | 100 to 1000 | CC1(N)CCN(c2cnc(Sc3cccc(NC(=O)c4ccc(N5CCC(N6CC=C(c7cnc(C(=O)NCc8ccc9c(c8)CN(C8CCC(=O)NC8=O)C9=O)cn7)CC6)CC5)cc4)c3)cn2)CC1 (stereo not drawn) [Compound 371] |
| < 100 | < 100 | COc1cc(C2=CCN(C3CCN(c4ccc(C(=O)Nc5cccc(Sc6cnc(N7CCC(C)(N)CC7)cn6)c5)cc4)CC3)CC2)ccc1C(=O)NCc1ccc2c(c1)CN(C1CCC(=O)NC1=O)C2=O (stereo not drawn) [Compound 377] |
| < 100 | < 100 | CC1(N)CCN(c2cnc(Sc3cccc(NC(=O)c4ccc(N5CCC(N6CCN(c7ccc(C(=O)NCc8ccc9c(c8)CN(C8CCC(=O)NC8=O)C9=O)nc7)CC6)CC5)cc4)c3)cn2)CC1 (stereo not drawn) [Compound 395] |
| < 100 | < 100 | CC1(N)CCN(c2cnc(Sc3cccc(NC(=O)c4ccc(N5CCC(N6CCN(c7ccc(C(=O)NCc8ccc9c(c8)CN(C8CCC(=O)NC8=O)C9=O)nc7)CC6)CC5)c(F)c4)c3)cn2)CC1 (stereo not drawn) [Compound 396] |
| < 100 | < 100 | CC1(N)CCN(c2cnc(Sc3cccc(NC(=O)c4ccc(N5CCC(N6CCN(c7ccc(C(=O)NCc8ccc9c(c8)CN(C8CCC(=O)NC8=O)C9=O)nn7)CC6)CC5)c(F)c4)c3)cn2)CC1 (stereo not drawn) [Compound 397] |
| < 100 | < 100 | CC1(N)CCN(c2cnc(Sc3cccc(NC(=O)c4ccc(N5CCC(N6CC=C(c7ccc(C(=O)NCc8ccc9c(c8)CN(C8CCC(=O)NC8=O)C9=O)nc7Cl)CC6)CC5)cc4)c3)cn2)CC1 (stereo not drawn) [Compound 398] |
| < 100 | < 100 | CC1(N)CCN(c2cnc(Sc3cccc(NC(=O)c4ccc(N5CCC(N6CC=C(c7cnc(C(=O)NCc8ccc9c(c8)CN(C8CCC(=O)NC8=O)C9=O)c(Cl)c7)CC6)CC5)cc4)c3)cn2)CC1 (stereo not drawn) [Compound 400] |
| < 100 | 100 to 1000 | CC1(N)CCN(c2cnc(Sc3cccc(NC(=O)c4ccc(N5CCC(N6CC=C(c7ccc(C(=O)NCc8ccc9c(c8)CN(C8CCC(=O)NC8=O)C9=O)nc7)CC6)CC5)cc4F)c3)cn2)CC1 (stereo not drawn) [Compound 405] |
| > 1000 | > 1000 | CC1(N)CCN(c2cnc(Sc3cccc(NC(=O)c4ccc(-c5ccc(N6CCC7(CC6)CC7C(=O)NCc6ccc7c(c6)CN(C6CCC(=O)NC6=O)C7=O)cc5)cc4)c3)cn2)CC1 (stereo not drawn) [Compound 406] |
| < 100 | < 100 | CC1(N)CCN(c2cnc(Sc3cccc(NC(=O)c4ccc(N5CCC(N6CC=C(c7ccc(C(=O)NCc8ccc9c(c8)CN(C8CCC(=O)NC8=O)C9=O)nc7)CC6)C(F)C5)nc4)c3)cn2)CC1 (stereo not drawn) [Compound 409] |

— patent publication US20240383908A1, “SYNTHESIS AND APPLICATION OF PHOSPHATASE DEGRADER” (HINOVA PHARMACEUTICALS INC., priority 2021, published 2024)
